Test results as given in PubChem BioAssay (NCI).
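Step 1: Grow cells in 96-well plates. Step 2: Expose to compound for 48 hours at 5 concentrations. Step 3: Interpolate endpoints linearly; if unreached, use highest concentration. TGI: concentration producing complete growth inhibition.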

How the values were obtained:
Experiment in all cases: NCI tumour cell line growth inhibition, 48 h
786-0 renal = system: 786-0 renal
A498 renal = system: A498 renal
A549 NSCLC = system: A549 NSCLC
ACHN renal = system: ACHN renal
BT-549 breast = system: BT-549 breast
CAKI-1 renal = system: CAKI-1 renal
CCRF-CEM leukemia = system: CCRF-CEM leukemia
COLO 205 colon = system: COLO 205 colon
DU-145 prostate = system: DU-145 prostate
EKVX NSCLC = system: EKVX NSCLC
HCC-2998 colon = system: HCC-2998 colon
HCT-116 colon = system: HCT-116 colon
HCT-15 colon = system: HCT-15 colon
HL-60(TB) leukemia = system: HL-60(TB) leukemia
HOP-62 NSCLC = system: HOP-62 NSCLC
HOP-92 NSCLC = system: HOP-92 NSCLC
HS 578T breast = system: HS 578T breast
HT29 colon = system: HT29 colon
IGROV1 ovarian = system: IGROV1 ovarian
K-562 leukemia = system: K-562 leukemia
KM12 colon = system: KM12 colon
LOX IMVI melanoma = system: LOX IMVI melanoma
M14 melanoma = system: M14 melanoma
MALME-3M melanoma = system: MALME-3M melanoma
MCF7 breast = system: MCF7 breast
MDA-MB-231 breast = system: MDA-MB-231 breast
MDA-MB-435 = system: MDA-MB-435
MDA-N = system: MDA-N
MOLT-4 leukemia = system: MOLT-4 leukemia
NCI-H226 lung = system: NCI-H226 lung
NCI-H23 lung = system: NCI-H23 lung
NCI-H460 lung = system: NCI-H460 lung
NCI-H522 lung = system: NCI-H522 lung
NCI/ADR-RES ovarian = system: NCI/ADR-RES ovarian
OVCAR-3 ovarian = system: OVCAR-3 ovarian
OVCAR-4 ovarian = system: OVCAR-4 ovarian
OVCAR-5 ovarian = system: OVCAR-5 ovarian
OVCAR-8 ovarian = system: OVCAR-8 ovarian
PC-3 prostate = system: PC-3 prostate
RPMI-8226 leukemia = system: RPMI-8226 leukemia
RXF 393 renal = system: RXF 393 renal
SF-268 CNS = system: SF-268 CNS
SF-295 CNS = system: SF-295 CNS
SF-539 CNS = system: SF-539 CNS
SK-MEL-2 melanoma = system: SK-MEL-2 melanoma
SK-MEL-28 melanoma = system: SK-MEL-28 melanoma
SK-MEL-5 melanoma = system: SK-MEL-5 melanoma
SK-OV-3 ovarian = system: SK-OV-3 ovarian
SN12C renal = system: SN12C renal
SNB-19 CNS = system: SNB-19 CNS
SNB-75 CNS = system: SNB-75 CNS
SR leukemia = system: SR leukemia
SW-620 colon = system: SW-620 colon
T-47D breast = system: T-47D breast
TK-10 renal = system: TK-10 renal
U251 CNS = system: U251 CNS
UACC-257 melanoma = system: UACC-257 melanoma
UACC-62 melanoma = system: UACC-62 melanoma
UO-31 renal = system: UO-31 renal

## O=Cc1ccc(-c2nccc3c2[nH]c2ccccc23)o1
786-0 renal
  TGI: > 100 µM
A498 renal
  TGI: 1.46 µM
A549 NSCLC
  TGI: > 100 µM
ACHN renal
  TGI: > 100 µM
BT-549 breast
  TGI: > 100 µM
CAKI-1 renal
  TGI: 41.4 µM
CCRF-CEM leukemia
  TGI: > 100 µM
COLO 205 colon
  TGI: > 100 µM
DU-145 prostate
  TGI: > 100 µM
EKVX NSCLC
  TGI: > 100 µM
HCC-2998 colon
  TGI: > 100 µM
HCT-116 colon
  TGI: > 100 µM
HCT-15 colon
  TGI: > 100 µM
HL-60(TB) leukemia
  TGI: > 100 µM
HOP-62 NSCLC
  TGI: > 100 µM
HOP-92 NSCLC
  TGI: 98.6 µM
HS 578T breast
  TGI: > 100 µM
HT29 colon
  TGI: > 100 µM
IGROV1 ovarian
  TGI: > 100 µM
K-562 leukemia
  TGI: > 100 µM
KM12 colon
  TGI: > 100 µM
LOX IMVI melanoma
  TGI: > 56.2 µM
M14 melanoma
  TGI: > 100 µM
MALME-3M melanoma
  TGI: > 100 µM
MCF7 breast
  TGI: > 100 µM
MDA-MB-231 breast
  TGI: > 100 µM
MDA-MB-435
  TGI: > 100 µM
MDA-N
  TGI: > 100 µM
MOLT-4 leukemia
  TGI: > 100 µM
NCI-H226 lung
  TGI: 9.86 µM
NCI-H23 lung
  TGI: > 100 µM
NCI-H460 lung
  TGI: > 100 µM
NCI-H522 lung
  TGI: > 100 µM
NCI/ADR-RES ovarian
  TGI: > 100 µM
OVCAR-3 ovarian
  TGI: > 100 µM
OVCAR-4 ovarian
  TGI: > 100 µM
OVCAR-5 ovarian
  TGI: > 100 µM
OVCAR-8 ovarian
  TGI: > 100 µM
PC-3 prostate
  TGI: > 100 µM
RPMI-8226 leukemia
  TGI: > 100 µM
RXF 393 renal
  TGI: > 81.9 µM
SF-268 CNS
  TGI: > 100 µM
SF-295 CNS
  TGI: 51.2 µM
SF-539 CNS
  TGI: > 100 µM
SK-MEL-2 melanoma
  TGI: > 100 µM
SK-MEL-28 melanoma
  TGI: > 100 µM
SK-MEL-5 melanoma
  TGI: > 100 µM
SK-OV-3 ovarian
  TGI: > 100 µM
SN12C renal
  TGI: > 100 µM
SNB-19 CNS
  TGI: > 100 µM
SNB-75 CNS
  TGI: > 100 µM
SR leukemia
  TGI: > 100 µM
SW-620 colon
  TGI: > 100 µM
T-47D breast
  TGI: > 100 µM
TK-10 renal
  TGI: > 100 µM
U251 CNS
  TGI: > 100 µM
UACC-257 melanoma
  TGI: > 55.9 µM
UACC-62 melanoma
  TGI: > 100 µM
UO-31 renal
  TGI: > 100 µM
